# Publication PMC11530130, “Peripherally restricted PICK1 inhibitor mPD5 ameliorates pain behaviors in murine inflammatory and neuropathic pain models” (JCI Insight, 2024)
# Where “and” joins values, the source holds several entries; their conditions need not be identical. Equal entries are not always repeated.
# How the values were obtained:
# [1] = Plasma exposure after repeated s.c. administration (10 + 2 + 2 + 2 + 2 μmol/kg), LC-MS/MS; type: in vivo, mouse; details: for Plasma exposure, Fig 7B, individual mice: 10µmol/kg repeated
# Procedure: Assessment of plasma levels and biodistribution of mPD5.
# The mPD5 plasma exposure was determined by (WuXI AppTec (Shanghai, China)) and done following s.c. injection of three male C57BL/6N (vendor: VTLH) mice (7-9 weeks old, fasted) with each concentration of mPD5 (2, 10 and 50 µmol/kg) in sterile PBS. Blood samples were taken 30 min, 1 hour, 2 hours, 5 hours, and 12 hours following injection. For the repeated administration experiment, the initial s.c. injection of 10 µmol/kg was followed by 4 s.c. administrations of 2 µmol/kg with one hour between injections. Following the last injection, blood samples (0.03 mL from saphenous vein or other suitable site) were collected in EDTA- […]
# K2 tubes at 5 min, 30 min, 1 hour, 5 hours, 12 hours, 24 hours, and 48 hours and centrifuged (app 4 ℃, 3200 g, 10 min) for collection of plasma. Plasma was transferred to 96 well plates and quick-frozen over dry ice and kept at -60 ℃ until LC-MS/MS analysis. For LC-MS/MS analysis plasma with 0.25% Triton X100 in 50% MeOH/water (6 µL) was quenched with 160 µL of IS1 (internal standard in MeOH (Labetalol & tolbutamide & Verapamil & dexamethasone & glyburide & Celecoxib 100 ng/mL for each)) and the mixture was vortexed for 10 min at 800 rpm and centrifuged for 15 min at 3220 × g at 4 ℃. An aliquot of 65 µL supernatant was transferred to a clean 96-well plate and centrifuged for 5 min at 3220 × g at 4 ℃, then the supernatant was directly injected for LC-MS/MS analysis. Plasma half-lives were determined from three points in the elimination phase. […]
# [2] = test system: mice, CFA model of inflammatory pain; assay: CFA model, marble-burying test; type: in vivo, mouse
# Procedure: Induction of inflammatory pain (CFA model).
# Injury was induced on the right hind paw, whereas the contralateral left hind paw was used as internal control of the C57BL/6J male and female mice (Janvier, France). The inflammatory pain was induced by injection of 50 μL undiluted Complete Freund’s Adjuvant (CFA) (F5881, Sigma) unilaterally into the intraplantar surface of the right hind paw, whereas control mice were injected with the same amount of 0.9 % saline (B. Braun, Germany). All intraplantar injections were performed with an insulin needle (0.3 mL BD Micro-Fine) while the animal was under isoflurane anaesthesia (2%) for maximum 60 seconds. Von Frey was applied up to 11 days after unilateral CFA injection depending on the experiment. […]
# For the first experiment with sustained administration of mPD5 (Figure 7C), the mice underwent a baseline von Frey reading as described in the “Mechanically-evoked pain (von Frey).”-section and SNI surgery as described in “Induction of neuropathic pain (SNI model).”-section. […] At 4,5 hours after the 10 μmol/kg mPD5 injection paw withdrawal threshold was measured again followed by a s.c. injection of 2 μmol/kg mPD5 in all animals. The PWT was measured again at 6 hours +7 hours + 8 hours + 9 hours + 10 hours + 11 hours + 22 hours + 23 hours + 25 hours + 27 hours + 49 hours + 121 hours after the initial 10 μmol/kg mPD5 injection performed on day 125. […]
smiles,measurement,setting,value
"CCCCCCCCCCCCCC(=O)N(CCOCCOCCC(=O)N[C@@H](Cc1c[nH]cn1)C(=O)N[C@@H](Cc1c[nH]c2ccccc12)C(=O)N[C@@H](CC(C)C)C(=O)N[C@@H](CCCCN)C(=O)N[C@H](C(=O)O)C(C)C)CCOCCOCCC(=O)N[C@@H](Cc1c[nH]cn1)C(=O)N[C@@H](Cc1c[nH]c2ccccc12)C(=O)N[C@@H](CC(C)C)C(=O)N[C@@H](CCCCN)C(=O)N[C@H](C(=O)O)C(C)C [mPD5, myristoyl-NPEG4-(HWLKV)2]","Plasma exposure, Fig 7B, individual mice",[1]; time 0.5,3149 and 2827 and 2358
same,"Plasma exposure, Fig 7B, individual mice",[1]; time 1,3071 and 3116 and 2251
same,"Plasma exposure, Fig 7B, individual mice",[1]; time 5,8.66 and 8.95 and 4.61
same,half-life,"[1]; C57BL/6N, mouse, plasma, sc, s.c. 10 μmol/kg followed by 4 x 2 μmol/kg in 1-hour intervals",31.2 ± 1.2 min
same,effect on CFA-induced decrease in marble burying,"[2]; 10 μmol/kg, to the level of the naive mice",reverted significantly
same,"marbles buried, individual mice",[2]; 1 hour after s.c. 10 μmol/kg,6 and 9 and 10 and 11 and 7 and 4 and 5
